Measured values: patent publication US6827926B2, “Metallotetrapyrrolic photosensitizing agents for use in photodynamic therapy” (Miravant Pharmaceuticals, Inc., priority 2001, dated 2004)

Each compound was assayed on V79 (Chinese Hamster Lung Fibroblasts) cells (assay: In vitro cytotoxicity assay (light EC50, Alamar blue)). Settings: Table 3 porphyrins, 24 h drug incubation, 532 nm, 1.25 J/cm^2, read-out: In Vitro EC50 Light.
Assay type: cell-based
Description: The in vitro biological evaluation of photosensitizers for their ability to photosensitize cells was performed using standard procedures. Using 5% FBS/DMEM phenol-free media, wells (180 μl/well) were plated with 5×10^4 V79 (Chinese Hamster Lung Fibroblasts) cells/ml into two 96 well plates. Plate 1 was light-treated and plate 2 served as a control. The plates were Incubated at 37° C., 5% CO2 for 3-5 hours. Standard solutions of the photosensitizers were dissolved in pre-filtered Dimethyl Sulfoxide (DMSO). Drug was diluted in 5% FBS DMEM phenol free medium. Final drug concentrations for light and dark experiments were 0.01, 0.1, 1.0, 3.0 and 5.0 μM. Twenty microliters of each concentration were added to six replicate wells to the light and dark plate. The plates were wrapped in aluminum foil to avoid photoactivation and mixed in a gyratory shaker for approximately 2 minutes. Both plates were incubated for 24 hours at 37° C., 5% CO2. After a 24 hour incubation, drug-containing media was aspirated from the plates. Each well was rinsed with 180 μl Hepes buffer salt solution (HBSS) then aspirated to remove the HBSS. 180 μl of fresh media were added (5% FBS/DMEM phenol-free) to each well. […] Plate 2 was not light treated. Immediately after light treatment, 20 μl Alamar blue was added to each well in plate 1. Alamar blue was added to plate 2 immediately after fresh media was added. The plates were mixed on a gyratory shaker for 5 min.
Both plates were incubated under dark conditions for 24 hours at 37° C., 5% CO2. After 24 hour incubation, the plates were read on a plate reader spectrophotometer (Spectra Max 250) at wavelengths 570 and 600 nm. and the percentage of cell survival recorded.
CC1=CC2=Cc3c(C)cc4[n]3[Ga-2]35([Cl])[n]6c(c(C)c(CCC(=O)NCCCO)c6=CC6=[N+]3C(=C4)C(C)=C6CCC(=O)NCCCO)=CC1=[N+]25 [Example 68, Gallium Chloride Deuteroporphyrin di(3-hydroxypropylamide)] showed an EC50 of 3000 nM. In the case of CCC1=C(C)C2=[N+]3C1=Cc1c(C)c(CC)c4[n]1[Ga-2]31([Cl])[n]3c(c(C)c(CCC(=O)NCCOCCO)c3=CC3=[N+]1C(=C4)C(C)=C3CCC(=O)NCCOCCO)=C2 [Example 16, Gallium Chloride Mesoporphyrin 2-ethoxyethanol amide], the EC50 is reported as 2900 nM. With CNC(=O)CCC1=C(C)C2=Cc3cc(C)c4[n]3[Ga-2]35([Cl])[n]6c(c(C)c(CCC(=O)NC)c6=CC1=[N+]23)=CC1=[N+]5C(=C4)C=C1C [Example 6, Gallium Chloride Deuteroporphyrin Methylamide] the EC50 was 4050 nM. Compound CCC1=C(C)c2cc3[n-]c(cc4nc(cc5[n-]c(cc1n2)c(C)c5CC)C(C)=C4CCC(=O)NCCCO)c(CCC(=O)NCCCO)c3C.[Pt+2] [Example 67, Platinum Mesoporphyrin di(3-hydroxypropylamide)] has an EC50 of 100 nM. Work on CCC1=C(C)C2=Cc3c(CC)c(C)c4[n]3[Ga-2]35([Cl])[n]6c(c(C)c(CCCOCCOC)c6=CC6=[N+]3C(=C4)C(C)=C6CCCOCCOC)=CC1=[N+]25 [M=Ga R1=Et R3=Me R4=Et R2=CH2O(CH2)2OCH3] yielded an EC50 of 430 nM. With CCC1=C(C)C2=[N+]3C1=Cc1c(C)c(CC)c4[n]1[Al-2]31([Cl])[n]3c(c(C)c(CCC(=O)NC)c3=CC3=[N+]1C(=C4)C(C)=C3CCC(=O)NC)=C2 [Example 61, Aluminum Chloride Mesoporphyrin N-methylamide] the EC50 was 2000 nM. Work on CCC1=C(C)C2=[N+]3C1=Cc1c(C)c(CC)c4[n]1[Pt-2]31[n]3c(c(C)c(CCC(=O)NCCOC)c3=CC3=[N+]1C(=C4)C(C)=C3CCC(=O)NCCOC)=C2 (stereo not shown) [Example 65, Platinum Mesoporphyrin di(2-methoxyethylamide)] yielded an EC50 of 50 nM. Compound CCOP(=O)(CCCC1=C(C)c2cc3cc(C)c(cc4nc(cc5[n-]c(cc1n2)c(CCCP(=O)(OCC)OCC)c5C)C(C)=C4)[n-]3)OCC.[Cl-].[Ga+3] [Example 80, Gallium Chloride 3,7,12,17-tetramethylporphyrin-2,18-di((3′-diethylphosphono)propyl)] has an EC50 of 2000 nM. Work on CCC1=C(C)C2=Cc3c(CC)c(C)c4[n]3[Ga-2]35([Cl])[n]6c(c(C)c(CCCOCCO)c6=CC6=[N+]3C(=C4)C(C)=C6CCCOCCO)=CC1=[N+]25 [M=Ga R1=Et R3=Me R4=Et R2=CH2O(CH2)2OH] yielded an EC50 of 500 nM.

Same assay, conditions: Table 4 azaporphyrins, 575 nm (Pt azaporphyrins 532 nm), 1.25 J/cm^2, read-out: In Vitro EC(50)
In the case of COC(=O)CCC1=C(C)C2=Cc3c(C)c(C(C)OC)c4[n]3[Ga-2]35([Cl])[n]6c(c(C)c(CCC(=O)OC)c6=CC1=[N+]23)=CC1=[N+]5C(=N4)C(C)=C1C(C)OC (mixture of isomers) [M=Ga R1,R3=Me R2,R4=CH(OMe)CH3 R=CO2Me], the EC50 is reported as 1000 nM. CCC1=C(CC)C2=Nc3c(CC)c(CC)c4[n]3[Pt][n]3c(c(C)c(CCCO)c3=CC3=NC(=C4)C(C)=C3CCCO)=CC1=N2 [Example 105, Platinum 7,8,12,13-tetraethyl-12,17-dimethyl-10-azaporphyrin-2,18-di(3′-hyroxypropyl)] gave an EC50 of 40 nM. With “Gallium Chloride 7,8,12,13-tetraethyl-12,17-dimethyl-10-azaporphyrin-2,18-di(propionic acid-2′-N,N-dimethylaminoethyl amide) [Example 102]” the EC50 was 1200 nM. Work on CCC1=C(CC)C2=Nc3c(CC)c(CC)c4[n]3[Pt][n]3c(c(C)c(CCC(=O)NCCOCCO)c3=CC3=NC(=C4)C(C)=C3CCC(=O)NCCOCCO)=CC1=N2 [Example 101, Platinum 7,8,12,13-tetraethyl-12,17-dimethyl-10-azaporphyrin-2,18-di(propionic acid-2-ethoxyethanol amide)] yielded an EC50 of 1500 nM. In the case of CCC1=C(CC)C2=Nc3c(CC)c(CC)c4[n]3[Ga]([Cl])[n]3c(c(C)c(CCC(=O)NCCOCCO)c3=CC3=NC(=C4)C(C)=C3CCC(=O)NCCOCCO)=CC1=N2 [Example 100, Gallium Chloride 7,8,12,13-tetraethyl-12,17-dimethyl-10-azaporphyrin-2,18-di(propionic acid-2-ethoxyethanol amide)], the EC50 is reported as 1300 nM. For CCC1=C(C)C2=NC1=Nc1c(C)c(CC)c3[n]1[Ga]([Cl])[n]1c(c(C)c(CCC(=O)NC)c1=CC1=NC(=C3)C(C)=C1CCC(=O)NC)=C2 [Example 94, Gallium Chloride 5-aza-mesoporphyrin IX Dimethyl Amide], the EC50 was 520 nM. Work on CCC1=C(CC)C2=Nc3c(CC)c(CC)c4[n]3[Pt][n]3c(c(C)c(CCC(=O)NC)c3=CC3=NC(=C4)C(C)=C3CCC(=O)NC)=CC1=N2 [Example 92, Platinum 7,8,12,13-tetraethyl-12,17-dimethyl-10-azaporphyrin-2,18-di(propionic acid methyl amide)] yielded an EC50 of 2300 nM. With CCC1=C(C)c2nc1cc1[n-]c(cc3nc(cc4[n-]c(n2)c(C)c4CCC(=O)OC)C(CCC(=O)OC)=C3C)c(CC)c1C.[Cl-].[Ga+3] [Example 20, Gallium Chloride 5-azamesoporphyrin IX Dimethyl Ester] the EC50 was 400 nM. CCC1=C(CC)C2=Nc3c(CC)c(CC)c4[n]3[Pt][n]3c(c(C)c(CCC(=O)NCCOC)c3=CC3=NC(=C4)C(C)=C3CCC(=O)NCCOC)=CC1=N2 [Example 96, Platinum 7,8,12,13-tetraethyl-12,17-dimethyl-10-azaporphyrin-2,18-di(propionic acid-2′-methoxyethyl amide)] gave an EC50 of 1900 nM. Compound CCC1=C(C)c2nc1cc1[n-]c(cc3nc(cc4[n-]c(n2)c(C)c4CCC(=O)NCCCO)C(CCC(=O)NCCCO)=C3C)c(CC)c1C.[Cl-].[Ga+3] [Example 99, Gallium Chloride 5-azamesoporphyrin IX di(3′-hydroxypropyl amide)] has an EC50 of 500 nM. CCC1=C(CC)C2=Nc3c(CC)c(CC)c4[n]3[Pt][n]3c(c(C)c(CCC(=O)NCCCO)c3=CC3=NC(=C4)C(C)=C3CCC(=O)NCCCO)=CC1=N2 [Example 98, Platinum 7,8,12,13-tetraethyl-12,17-dimethyl-10-azaporphyrin-2,18-di(propionic acid-3′-hydroxypropyl amide amide)] gave an EC50 of 2000 nM. CCC1=C(CC)C2=Nc3c(CC)c(CC)c4[n]3[Al]([Cl])[n]3c(c(C)c(CCC(=O)NC)c3=CC3=NC(=C4)C(C)=C3CCC(=O)NC)=CC1=N2 [Example 93, Aluminum Chloride 7,8,12,13-tetraethyl-12,17-dimethyl-10-azaporphyrin-2,18-di(propionic acid methyl amide)] showed an EC50 of 100 nM. CCC1=C(CC)C2=[N+]3C1=Nc1c(CC)c(CC)c4[n]1[Ga-2]31([OH])[n]3c(c(C)c(CCC(=O)O)c3=CC3=[N+]1C(=C4)C(C)=C3CCC(=O)O)=C2.[Na+].[Na+] [Example 88, Gallium Hydroxy 7,8,12,13-tetraethyl-12,17-dimethyl-10-azaporphyrin-2,18-di(propionic acid Sodium Salt)] gave an EC50 of 500 nM. Work on CCC1=C(CC)C2=Nc3c(CC)c(CC)c4[n]3[Pt][n]3c(c(C)c(CCC(=O)NCCN(C)C)c3=CC3=NC(=C4)C(C)=C3CCC(=O)NCCN(C)C)=CC1=N2 [Example 103, Platinum 7,8,12,13-tetraethyl-12,17-dimethyl-10-azaporphyrin-2,18-di(propionic acid-2′-N,N-dimethylaminoethyl amide)] yielded an EC50 of 1200 nM. Work on “Gallium Chloride 7,8,12,13-tetraethyl-12,17-dimethyl-10-azaporphyrin-2,18-di(propionic acid-3′-hydroxypropyl amide) [Example 97]” yielded an EC50 of 1700 nM. With CCC1=C(CC)c2nc1cc1[n-]c(cc3nc(cc4[n-]c(n2)c(CC)c4CC)C(C)=C3CCCOC)c(CCCOC)c1C.[Cl-].[Ga+3] [Example 106, Gallium Chloride 7,8,12,13-tetraethyl-12,17-dimethyl-10-azaporphyrin-2,18-di(3′-methoxypropyl)] the EC50 was 1000 nM.

Same assay, conditions: light EC50, metallodiazaporphyrins, read-out: In Vitro EC(50)
“Platinum 3,7,14,17-tetramethyl-5,10-diazaporphyrin-2,8,12,18-tetra(propionic acid methyl ester [Example 119]” showed an EC50 of 350 nM. For CCC1=C(CC)C2=[N+]3C1=Nc1c(CC)c(CC)c4[n]1[Pt-2]31[n]3c(c(CC)c(CC)c3=C2c2ccc(OC)cc2)=NC2=[N+]1C(=C4c1ccc(OC)cc1)C(CC)=C2CC (stereo not shown) [M=Pt, R1=Et, R2=Et, R3=p-(C6H4)OCH3], the EC50 was 300 nM. For “Gallium Chloride 3,7,14,17-tetramethyl-5,10-diazaporphyrin-2,8,12,18-tetra (3′-hydroxypropyl) [Example 118]”, the EC50 was 300 nM. In the case of “Platinum 3,7,14,17-tetramethyl-5,10-diazaporphyrin-2,8,12,18-tetra(3′-hydroxypropyl) [Example 120]”, the EC50 is reported as 60 nM. Work on CCC1=C(CC)C2=[N+]3C1=Nc1c(CC)c(CC)c4[n]1[Ga-2]31([Cl])[n]3c(c(CC)c(CC)c3=C2c2ccc(OC)cc2)=NC2=[N+]1C(=C4c1ccc(OC)cc1)C(CC)=C2CC [M=Ga, R1=Et, R2=Et, R3=p-(C6H4)OCH3] yielded an EC50 of 600 nM. “Gallium Chloride 3,7,14,17-tetramethyl-5,10-diazaporphyrin-2,8,12,18-tetra propionic acid [Example 117]” was tested, and the EC50 was 600 nM.
